For data set [1], the system named is Rattus norvegicus. As to the kind of experiment: Antiinflammatory activity against Wistar (Krf:WI) rat assessed as reduction in carragenan-induced paw edema at 30 mg/kg treated prior to carrageenan challenge and measured after 3 hrs by plethysmometry relative to control. The format is functional.
The test system of data set [2] is Rattus norvegicus. As to the kind of experiment: Analgesic activity in carragenan-induced thermal hyperalgesia model of Wistar (Krf:WI) rat assessed as latency of nociceptive response for radiant heat stimulation at 30 mg/kg treated prior to carrageenan challenge and measured after 1 hr (reference value: 71.4%). The format is functional.
Data set [3] concerns Mus musculus. The data set is described as follows: Analgesic activity in formalin-induced nociception CD-1 mouse model assessed as reduction in pain behaviour by measuring less licking of formalin injected hind paw compound administered intraperitoneally prior to formalin induction and measured during late phase (15 to 30 mins after formalin injection) by formalin test. The format is functional. The following applies: CD-1, ip, time 15-30 min.

Data set [4] concerns Rattus norvegicus. As to the kind of experiment: Memory enhancement effect in dizocilpine-induced Wistar (Krf:WI) rat model of amnesia assessed as decrease in transfer latency time at 1.25 to 5 mg/kg, ip measured after 30 to 45 mins by elevated plus maze test. The format is functional, organism-based. The following applies: dose 1.25-5 mg/kg, time 30-45 min.
The subject of data set [5] is Rattus norvegicus. As to the kind of experiment: Analgesic activity in carragenan-induced thermal hyperalgesia model of Wistar (Krf:WI) rat assessed as latency of nociceptive response for radiant heat stimulation at 30 mg/kg treated prior to carrageenan challenge and measured after 3 hrs (reference value: 50.3%). The format is functional.
The target in data set [6] is Acetylcholinesterase (Electrophorus electricus) (UniProt O42275). As to the kind of experiment: Non-competitive inhibition of Electric eel AChE using ATCI as substrate incubated for 5 mins followed by substrate addition and measured after 5 mins by spectrophotometric based Lineweaver-Burk plot analysis. The settings on record: time 10.0 min.
Sequence of Acetylcholinesterase (Electrophorus electricus) (O42275 24-633 limits assumed): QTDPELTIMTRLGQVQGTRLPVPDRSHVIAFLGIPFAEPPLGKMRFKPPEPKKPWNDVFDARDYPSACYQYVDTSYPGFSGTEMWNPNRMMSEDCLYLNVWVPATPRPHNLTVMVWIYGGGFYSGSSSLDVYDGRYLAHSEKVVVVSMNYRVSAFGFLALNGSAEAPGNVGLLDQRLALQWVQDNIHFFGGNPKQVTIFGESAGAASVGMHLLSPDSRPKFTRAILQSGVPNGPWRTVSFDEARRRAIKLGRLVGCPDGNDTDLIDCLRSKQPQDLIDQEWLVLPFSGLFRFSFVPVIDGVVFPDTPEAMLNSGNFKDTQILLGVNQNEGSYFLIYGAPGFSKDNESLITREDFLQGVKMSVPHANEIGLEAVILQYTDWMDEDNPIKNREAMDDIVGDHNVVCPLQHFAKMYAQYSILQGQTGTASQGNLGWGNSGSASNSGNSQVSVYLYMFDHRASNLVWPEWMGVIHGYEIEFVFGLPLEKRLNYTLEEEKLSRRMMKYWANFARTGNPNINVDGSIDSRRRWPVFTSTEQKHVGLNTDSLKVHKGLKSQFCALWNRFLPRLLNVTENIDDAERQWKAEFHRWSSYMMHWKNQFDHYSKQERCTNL
The target of another data set is Acetylcholinesterase (Electrophorus electricus, UniProt O42275).
Sequence of Acetylcholinesterase (O42275 whole entry): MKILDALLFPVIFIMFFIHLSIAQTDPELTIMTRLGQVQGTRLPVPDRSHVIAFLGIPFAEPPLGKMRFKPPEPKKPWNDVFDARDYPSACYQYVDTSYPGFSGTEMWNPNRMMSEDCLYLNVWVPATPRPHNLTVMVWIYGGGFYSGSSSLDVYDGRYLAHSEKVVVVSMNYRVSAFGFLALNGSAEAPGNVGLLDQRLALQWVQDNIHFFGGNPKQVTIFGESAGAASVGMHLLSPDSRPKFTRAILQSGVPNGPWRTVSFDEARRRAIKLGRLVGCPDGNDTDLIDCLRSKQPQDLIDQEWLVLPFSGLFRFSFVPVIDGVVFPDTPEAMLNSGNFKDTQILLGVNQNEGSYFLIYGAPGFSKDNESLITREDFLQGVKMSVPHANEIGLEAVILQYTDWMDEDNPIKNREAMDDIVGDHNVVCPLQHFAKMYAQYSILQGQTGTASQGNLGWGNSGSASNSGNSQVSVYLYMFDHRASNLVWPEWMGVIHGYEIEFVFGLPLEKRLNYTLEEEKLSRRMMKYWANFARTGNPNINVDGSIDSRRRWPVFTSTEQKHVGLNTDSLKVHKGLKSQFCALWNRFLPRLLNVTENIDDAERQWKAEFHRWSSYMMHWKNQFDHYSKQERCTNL
The subject of data set [7] is Mus musculus. The data set is described as follows: Antiallodynic activity in oxaliplatin-induced peripheral neuropathy pain CD-1 mouse model assessed as inhibition of early-phase tactile allodynia by measuring pain sensitivity threshold administered with compound intraperitoneally at 3 hrs after oxaliplatin stimulation and measured after 30 mins by von Frey test. It is filed as functional, organism-based. The settings on record: dose 15-30 mg/kg.

The test system of data set [8] is Mus musculus. The data set is described as follows: Antiallodynic activity in oxaliplatin-induced peripheral neuropathy pain CD-1 mouse model assessed as inhibition of early-phase tactile allodynia by measuring pain sensitivity threshold at 15 mg/kg administered with compound intraperitoneally at 3 hrs after oxaliplatin stimulation and measured after 30 mins by von Frey test (reference value: 61.2 %). The format is functional. More on the design: scale not given: the % may be the effect or the level left. The following applies: 0.5 h.

Data set [9] relates to Rattus norvegicus. The data set is described as follows: Antiinflammatory activity against Wistar (Krf:WI) rat assessed as reduction in carragenan-induced paw edema at 22.5 mg/kg treated prior to carrageenan challenge and measured after 1 hr by plethysmometry relative to control. The format is functional.
Data set [10] relates to Rattus norvegicus. The data set is described as follows: Antiinflammatory activity against Wistar (Krf:WI) rat assessed as reduction in carragenan-induced paw edema at 30 mg/kg treated prior to carrageenan challenge and measured after 6 hrs by plethysmometry relative to control. The format is functional.
For data set [11], the system named is Rattus norvegicus. The data set is described as follows: Antiinflammatory activity against Wistar (Krf:WI) rat assessed as reduction in carragenan-induced paw edema at 22.5 mg/kg treated prior to carrageenan challenge and measured after 3 hrs by plethysmometry relative to control. It is filed as functional.
For data set [12], the system named is Mus musculus. The data set is described as follows: Antiallodynic activity in oxaliplatin-induced peripheral neuropathy pain CD-1 mouse model assessed as inhibition of late-phase tactile allodynia by measuring pain sensitivity threshold at 22.5 mg/kg administered with compound intraperitoneally at 7 days after oxaliplatin stimulation and measured after 30 mins by von Frey test (reference value: 65.3%). The format is functional. More on the design: scale not given: the % may be the effect or the level left. The settings on record: 0.5 h.

Data set [13] concerns Mus musculus. The data set is described as follows: Antiallodynic activity in oxaliplatin-induced peripheral neuropathy pain CD-1 mouse model assessed as inhibition of late-phase tactile allodynia by measuring pain sensitivity threshold at 15 mg/kg administered with compound intraperitoneally at 7 days after oxaliplatin stimulation and measured after 30 mins by von Frey test (reference value: 65.3%). The format is functional. More on the design: scale not given: the % may be the effect or the level left. The settings on record: 0.5 h.

The subject of data set [14] is Mus musculus. As to the kind of experiment: Antiallodynic activity in oxaliplatin-induced peripheral neuropathy pain CD-1 mouse model assessed as inhibition of early-phase tactile allodynia by measuring pain sensitivity threshold at 22.5 mg/kg administered with compound intraperitoneally at 3 hrs after oxaliplatin stimulation and measured after 30 mins by von Frey test (reference value: 61.2 %). The format is functional. More on the design: scale not given: the % may be the effect or the level left. The following applies: 0.5 h.

In data set [15] the test system is Rattus norvegicus. As to the kind of experiment: Analgesic activity in carragenan-induced thermal hyperalgesia model of Wistar (Krf:WI) rat assessed as latency of nociceptive response for radiant heat stimulation at 30 mg/kg treated prior to carrageenan challenge and measured after 24 hrs (reference value: 83.3%). The format is functional.
The target in data set [16] is Cholinesterase (Equus caballus) (UniProt P81908). The data set is described as follows: Non-competitive inhibition of equine serum BChE using BTCI as substrate incubated for 5 mins followed by substrate addition and measured after 5 mins by spectrophotometric based Cornish-Bowden plot analysis. The settings on record: time 10.0 min. The format is cell-free.
Sequence of Cholinesterase (Equus caballus) (P81908 whole entry): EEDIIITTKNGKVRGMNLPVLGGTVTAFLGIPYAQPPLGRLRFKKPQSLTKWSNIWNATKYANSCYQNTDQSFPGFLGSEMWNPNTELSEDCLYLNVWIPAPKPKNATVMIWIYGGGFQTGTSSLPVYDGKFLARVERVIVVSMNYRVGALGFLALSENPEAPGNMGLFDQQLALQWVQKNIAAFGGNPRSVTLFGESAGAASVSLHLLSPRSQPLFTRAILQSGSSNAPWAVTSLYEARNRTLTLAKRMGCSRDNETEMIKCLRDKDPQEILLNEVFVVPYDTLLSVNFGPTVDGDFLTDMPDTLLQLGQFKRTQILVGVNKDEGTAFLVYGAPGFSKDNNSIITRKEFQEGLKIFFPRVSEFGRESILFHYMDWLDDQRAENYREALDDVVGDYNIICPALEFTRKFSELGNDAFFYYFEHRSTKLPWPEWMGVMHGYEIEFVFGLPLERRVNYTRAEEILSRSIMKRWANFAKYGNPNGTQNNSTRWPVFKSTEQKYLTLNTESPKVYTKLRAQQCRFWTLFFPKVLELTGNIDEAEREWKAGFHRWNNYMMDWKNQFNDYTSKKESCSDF
Data set [17] deals with T1, MAO-A (Homo sapiens, UniProt P21397).
T1 sequence (P21397 whole entry): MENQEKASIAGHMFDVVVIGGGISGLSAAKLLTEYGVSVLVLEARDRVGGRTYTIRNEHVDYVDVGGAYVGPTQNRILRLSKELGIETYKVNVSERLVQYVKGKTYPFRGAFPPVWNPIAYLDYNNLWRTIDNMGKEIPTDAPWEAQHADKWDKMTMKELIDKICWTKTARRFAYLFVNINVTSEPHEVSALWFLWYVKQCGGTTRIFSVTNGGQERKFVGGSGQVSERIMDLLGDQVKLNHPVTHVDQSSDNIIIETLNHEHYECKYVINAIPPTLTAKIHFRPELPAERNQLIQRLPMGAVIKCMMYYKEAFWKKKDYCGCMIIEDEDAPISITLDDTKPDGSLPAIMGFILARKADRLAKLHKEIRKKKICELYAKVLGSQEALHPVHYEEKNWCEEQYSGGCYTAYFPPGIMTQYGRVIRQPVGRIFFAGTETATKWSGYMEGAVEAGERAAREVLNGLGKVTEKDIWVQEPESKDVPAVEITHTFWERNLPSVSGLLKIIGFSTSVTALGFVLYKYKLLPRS
The data set is described as follows: in vitro. The following applies: probe p-tyramine.
Description: Inhibition of recombinant human MAO-A expressed in baculovirus infected BTI cells at 1 uM using p-tyramine as substrate by fluorometric assay relative to control

In data set [18] the target is T1, MAO-A. As to the kind of experiment: Inhibition of recombinant human MAO-A expressed in baculovirus infected BTI cells at 10 uM using p-tyramine as substrate by fluorometric assay relative to control. The following applies: probe p-tyramine.
For data set [19], the system named is Mus musculus. The data set is described as follows: Antiallodynic activity in oxaliplatin-induced peripheral neuropathy pain CD-1 mouse model assessed as inhibition of early-phase tactile allodynia by measuring pain sensitivity threshold at 30 mg/kg administered with compound intraperitoneally at 3 hrs after oxaliplatin stimulation and measured after 30 mins by von Frey test (reference value: 61.2 %). It is filed as functional. More on the design: scale not given: the % may be the effect or the level left. The settings on record: 0.5 h.

The target in another data set is Histamine H3 receptor (Homo sapiens, UniProt Q9Y5N1). As to the kind of experiment: biochemical.
Sequence of Histamine H3 receptor (Q9Y5N1 whole entry): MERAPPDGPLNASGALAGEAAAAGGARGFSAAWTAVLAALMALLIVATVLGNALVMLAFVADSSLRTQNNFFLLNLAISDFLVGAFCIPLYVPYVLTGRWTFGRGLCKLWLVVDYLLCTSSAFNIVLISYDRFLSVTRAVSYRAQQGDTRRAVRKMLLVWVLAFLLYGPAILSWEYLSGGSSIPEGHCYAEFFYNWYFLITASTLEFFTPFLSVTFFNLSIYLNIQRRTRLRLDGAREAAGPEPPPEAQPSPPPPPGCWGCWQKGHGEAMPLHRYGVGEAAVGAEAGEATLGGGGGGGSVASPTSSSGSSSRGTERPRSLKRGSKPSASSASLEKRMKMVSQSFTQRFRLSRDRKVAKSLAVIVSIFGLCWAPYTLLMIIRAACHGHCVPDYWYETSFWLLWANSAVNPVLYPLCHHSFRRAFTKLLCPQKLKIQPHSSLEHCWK
For data set [20], the system named is Rattus norvegicus. The data set is described as follows: Antiinflammatory activity against Wistar (Krf:WI) rat assessed as reduction in carragenan-induced paw edema at 22.5 mg/kg treated prior to carrageenan challenge and measured after 6 hrs by plethysmometry relative to control. The format is functional.
The subject of data set [21] is Mus musculus. As to the kind of experiment: Antiallodynic activity in oxaliplatin-induced peripheral neuropathy pain CD-1 mouse model assessed as inhibition of late-phase tactile allodynia by measuring pain sensitivity threshold at 30 mg/kg administered with compound intraperitoneally at 7 days after oxaliplatin stimulation and measured after 30 mins by von Frey test (reference value: 65.3%). It is filed as functional. More on the design: scale not given: the % may be the effect or the level left. The settings on record: 0.5 h.

The target of data set [22] is Cholinesterase (Equus caballus) (UniProt P81908). As to the kind of experiment: Non-competitive inhibition of equine serum BChE using BTCI as substrate incubated for 5 mins followed by substrate addition and measured after 5 mins by spectrophotometric based Lineweaver-Burk plot analysis. It is filed as cell-free. The settings on record: time 10.0 min.

Activity calls are given as the source filed them. A value given as a limit tells only on which side of the number the result lay.

Description for Histamine H3 receptor: Displacement of [3H]N-alpha-methylhistamine from recombinant human histamine H3 receptor expressed in CHO-K1 cells by microbeta scintillation analysis

Take `O=c1c2ccccc2oc2ccc(OCCCCCN3CCCCCC3)cc12`: the inhibition in vivo (commonly the drop in the measured response relative to a control, in per cent) at 30 mg/kg in the data set on Rattus norvegicus [1] was determined as 52.1%; in the data set on Rattus norvegicus [10], 44.9%. Also, the Activity in the data set on Rattus norvegicus [2] was 130%; in the data set with Rattus norvegicus [5], 96%; with Mus musculus [7], “Dose-dependent effect”; with Mus musculus [8], 88.5%; in the data set with Mus musculus [12], 88.5%; in the data set on Mus musculus [13] it was 85.9%. In addition, the Activity in the data set on Mus musculus [14] is 90.6%; in the data set with Rattus norvegicus [15], 116%; with Mus musculus [19], 95.6%; in the data set with Mus musculus [21] it was 100%. For the same compound, the ED50 – broadly, the dose that gives a 50% effect, or the effect in half of the subjects – in the data set on Mus musculus [3] was found to be 11.3 mg/kg. Also, the outcome with Rattus norvegicus [4] was Active. Moreover, the inhibition entry in data set [6], in data set [16] and in data set [22] was “Active” throughout. Half-maximal inhibition against Acetylcholinesterase (IC50) required 180 nM. Also, the figures for the inhibition in vivo at 22.5 mg/kg with Rattus norvegicus [9], in the data set with Rattus norvegicus [11] and in the data set with Rattus norvegicus [20] were 36.1%, 26.5% and 19.4%, respectively. Moreover, the inhibition (as a rule, how much of the control response was suppressed) at 1 µM against MAO-A [17] amounted to 4%. Also, the inhibition at 10 µM at MAO-A [18] is below 50%. Also, at Histamine H3 receptor, affinity was put at a Ki of 170 nM.

The values above are taken from ChEMBL document CHEMBL4706551, “Rational design of new multitarget histamine H receptor ligands as potential candidates for treatment of Alzheimer's disease” (Eur J Med Chem, 2020).
